The source made the active and inactive calls. Cut-off read from the data, not from the text of the source: actives have a measured IC50 and inactives only a lower limit.
target: Envelope glycoprotein gp160 (Human immunodeficiency virus 1, UniProt Q6QLK5); assay: cell-free HIV fusion peptide-binding blockers – biochemical, uHTS, fluorescence dequenching, […] (AID 1986)
Sequence (Q6QLK5 whole entry, the tested form may be a part): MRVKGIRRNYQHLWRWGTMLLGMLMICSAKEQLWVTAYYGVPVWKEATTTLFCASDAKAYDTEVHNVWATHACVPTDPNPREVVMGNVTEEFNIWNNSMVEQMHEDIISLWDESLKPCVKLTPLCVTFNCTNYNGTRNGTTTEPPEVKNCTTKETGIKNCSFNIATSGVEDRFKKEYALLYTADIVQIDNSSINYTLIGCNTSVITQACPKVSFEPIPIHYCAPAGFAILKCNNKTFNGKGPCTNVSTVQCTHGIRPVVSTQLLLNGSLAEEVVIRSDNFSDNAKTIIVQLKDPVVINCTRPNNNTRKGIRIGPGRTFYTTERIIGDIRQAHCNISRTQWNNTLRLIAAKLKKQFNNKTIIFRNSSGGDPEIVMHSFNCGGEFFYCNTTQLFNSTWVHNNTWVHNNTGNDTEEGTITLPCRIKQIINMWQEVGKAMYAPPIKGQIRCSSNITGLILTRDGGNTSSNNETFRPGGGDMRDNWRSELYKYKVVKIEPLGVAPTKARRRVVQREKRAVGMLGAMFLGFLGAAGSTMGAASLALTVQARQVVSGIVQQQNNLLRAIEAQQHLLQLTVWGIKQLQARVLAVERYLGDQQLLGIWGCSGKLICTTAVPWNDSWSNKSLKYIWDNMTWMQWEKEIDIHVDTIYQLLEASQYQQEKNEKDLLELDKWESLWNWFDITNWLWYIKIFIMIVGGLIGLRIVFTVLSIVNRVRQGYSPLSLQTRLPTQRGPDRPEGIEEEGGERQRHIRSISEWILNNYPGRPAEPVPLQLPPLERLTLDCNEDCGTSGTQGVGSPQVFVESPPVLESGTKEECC

SMILES	IC50
CC(C)NC(=O)c1sc(=S)n2c1[nH]c(=O)c1ccc(C(=O)NCCc3ccc(Cl)cc3)cc12	95.7 µM (active)
O=C(O)COc1ccc(Br)cc1C(c1c(C(=O)O)[nH]c2ccccc12)c1c(C(=O)O)[nH]c2ccccc12	5.76 µM (active)
CC1=NN(c2ccc(C(=O)O)cc2)C(=O)/C1=C\c1ccc(OC(=O)c2cccs2)cc1	12.6 µM (active)
COc1ccc(/N=C2\S/C(=C\c3ccc(OCC(=O)O)cc3)C(=O)N2CCc2c[nH]c3ccccc23)cc1	12.6 µM (active)
